Earlier results as cited in PMC8202924, “Emodepside targets SLO-1 channels of Onchocerca ochengi and induces broad anthelmintic effects in a bovine model of onchocerciasis” (PLoS Pathogens, 2021).

System: O. volvulus
Conditions: from ~10 years to 2–3 years; cited from earlier work

C[C@H]1c2cccc(O)c2C(=O)C2=C(O)[C@]3(O)C(=O)C(C(N)=O)=C(O)[C@@H](N(C)C)[C@@H]3[C@@H](O)[C@@H]21 [doxycycline]
Reduction in worm lifespan: 70–80%
